Source: PubChem BioAssay AID1259407 (Chemical Carcinogenesis Research Information System (CCRIS), 2018)
Active and inactive are the calls of the source. No rule for the calls is given here.

System: CCRIS mutagenicity, Ames/micronucleus/aberration tests
Assay: CCRIS mutagenicity studies
[1] = Test System: AMES SALMONELLA TYPHIMURIUM, Strain/Indicator: TA98, Metabolic Activation: NONE, Method: PREINCUBATION
[2] = Test System: AMES SALMONELLA TYPHIMURIUM, Strain/Indicator: TA100, Metabolic Activation: NONE, Method: PREINCUBATION

**Q.** For `Nc1cccc(S(=O)(=O)O)c1`, which mutagenic call (Test System: AMES SALMONELLA TYPHIMURIUM, Strain/Indicator: TA97, Metabolic Activation: HAMSTER, LIVER, S-9, AROCLOR 1254 (10 OR 30%), Method: PREINCUBATION) is on record?
**A.** inactive; negative

**Q.** What about the mutagenic call (Test System: AMES SALMONELLA TYPHIMURIUM, Strain/Indicator: TA97, Metabolic Activation: NONE, Method: PREINCUBATION) of the same compound?
**A.** inactive; negative

**Q.** What about the mutagenic call (Test System: AMES SALMONELLA TYPHIMURIUM, Strain/Indicator: TA97, Metabolic Activation: RAT, LIVER, S-9, AROCLOR 1254 (10 OR 30%), Method: PREINCUBATION) of the same compound?
**A.** inactive; negative

**Q.** What about the mutagenic call (Test System: AMES SALMONELLA TYPHIMURIUM, Strain/Indicator: TA98, Metabolic Activation: HAMSTER, LIVER, S-9, AROCLOR 1254 (10 OR 30%), Method: PREINCUBATION) of the same compound?
**A.** inactive; negative

**Q.** What about the mutagenic call [1] of the same compound?
**A.** inactive; negative

**Q.** What about the mutagenic call (Test System: AMES SALMONELLA TYPHIMURIUM, Strain/Indicator: TA98, Metabolic Activation: RAT, LIVER, S-9, AROCLOR 1254 (10 OR 30%), Method: PREINCUBATION) of the same compound?
**A.** inactive; negative

**Q.** And the mutagenic call (Test System: AMES SALMONELLA TYPHIMURIUM, Strain/Indicator: TA98, Metabolic Activation: S-9, Method: PREINCUBATION)?
**A.** inactive; negative

**Q.** And the mutagenic call (Test System: AMES SALMONELLA TYPHIMURIUM, Strain/Indicator: TA100, Metabolic Activation: HAMSTER, LIVER, S-9, AROCLOR 1254 (10 OR 30%), Method: PREINCUBATION)?
**A.** inactive; negative

**Q.** And the mutagenic call [2]?
**A.** inactive; negative

**Q.** And the mutagenic call (Test System: AMES SALMONELLA TYPHIMURIUM, Strain/Indicator: TA100, Metabolic Activation: RAT, LIVER, S-9, AROCLOR 1254 (10 OR 30%), Method: PREINCUBATION)?
**A.** inactive; negative

**Q.** What about the mutagenic call (Test System: AMES SALMONELLA TYPHIMURIUM, Strain/Indicator: TA100, Metabolic Activation: S-9, Method: PREINCUBATION) of the same compound?
**A.** inactive; negative

**Q.** And the mutagenic call (Test System: AMES SALMONELLA TYPHIMURIUM, Strain/Indicator: TA1535, Metabolic Activation: HAMSTER, LIVER, S-9, AROCLOR 1254 (10 OR 30%), Method: PREINCUBATION)?
**A.** inactive; negative

**Q.** What about the mutagenic call (Test System: AMES SALMONELLA TYPHIMURIUM, Strain/Indicator: TA1535, Metabolic Activation: NONE, Method: PREINCUBATION) of the same compound?
**A.** inactive; negative

**Q.** What about the mutagenic call (Test System: AMES SALMONELLA TYPHIMURIUM, Strain/Indicator: TA1535, Metabolic Activation: RAT, LIVER, S-9, AROCLOR 1254 (10 OR 30%), Method: PREINCUBATION) of the same compound?
**A.** inactive; negative

**Q.** What about the mutagenic call (Test System: UDS RODENT HEPATOCYTES, Strain/Indicator: THY INCORP (NON-S-PHASE), Metabolic Activation: NONE, Method: AUTORADIOGRAPHY) of the same compound?
**A.** inactive; negative

**Q.** Which mutagenic call (Test System: AMES SALMONELLA TYPHIMURIUM, Strain/Indicator: TA100, Metabolic Activation: HAMSTER, LIVER, S-9, AROCLOR 1254 (10%), Method: PREINCUBATION) does the source give for `COS(=O)(=O)C(F)(F)F` here?
**A.** active; positive

**Q.** And the mutagenic call (Test System: MOUSE LYMPHOMA, Strain/Indicator: L5178Y (TK+/TK-), Metabolic Activation: NONE, Method: SUSPENSION/PLATE)?
**A.** active; positive. reevaluation of results: positive

**Q.** And the mutagenic call (Test System: MOUSE LYMPHOMA, Strain/Indicator: L5178Y (TK+/TK-), Metabolic Activation: RAT, LIVER, S-9, AROCLOR 1254, Method: SUSPENSION/PLATE)?
**A.** active; positive. reevaluation of results: positive

**Q.** For `O=[N+]([O-])c1cccc2c1oc1ccccc12`, which mutagenic call (Test System: AMES SALMONELLA TYPHIMURIUM, Strain/Indicator: TA98(1,8-DNP6), Metabolic Activation: NONE, Method: PREINCUBATION) is on record?
**A.** active; positive

**Q.** And the mutagenic call (Test System: AMES SALMONELLA TYPHIMURIUM, Strain/Indicator: TA98(1,8-DNP6), Metabolic Activation: NONE, Method: SUSPENSION)?
**A.** active; positive

**Q.** And the mutagenic call (Test System: AMES SALMONELLA TYPHIMURIUM, Strain/Indicator: TA98(1,8-DNP6), Metabolic Activation: RAT, LIVER, S-9, PCB (5%), Method: PREINCUBATION)?
**A.** active; positive

**Q.** What about the mutagenic call (Test System: AMES SALMONELLA TYPHIMURIUM, Strain/Indicator: TA98(NR), Metabolic Activation: NONE, Method: PREINCUBATION) of the same compound?
**A.** active; positive

**Q.** What about the mutagenic call (Test System: AMES SALMONELLA TYPHIMURIUM, Strain/Indicator: TA98(NR), Metabolic Activation: NONE, Method: SUSPENSION) of the same compound?
**A.** active; positive

**Q.** What about the mutagenic call (Test System: AMES SALMONELLA TYPHIMURIUM, Strain/Indicator: TA98(NR), Metabolic Activation: RAT, LIVER, S-9 (10%), Method: PREINCUBATION) of the same compound?
**A.** active; positive

**Q.** What about the mutagenic call (Test System: AMES SALMONELLA TYPHIMURIUM, Strain/Indicator: TA98(NR), Metabolic Activation: RAT, LIVER, S-9, 3-METHYLCHOLANTHRENE (10%), Method: PREINCUBATION) of the same compound?
**A.** active; positive

**Q.** And the mutagenic call (Test System: AMES SALMONELLA TYPHIMURIUM, Strain/Indicator: TA98(NR), Metabolic Activation: RAT, LIVER, S-9, BETA-NAPHTHOFLAVONE (10%), Method: PREINCUBATION)?
**A.** active; positive

**Q.** And the mutagenic call (Test System: AMES SALMONELLA TYPHIMURIUM, Strain/Indicator: TA98(NR), Metabolic Activation: RAT, LIVER, S-9, PCB (5%), Method: PREINCUBATION)?
**A.** active; positive

**Q.** What about the mutagenic call (Test System: AMES SALMONELLA TYPHIMURIUM, Strain/Indicator: TA98(NR), Metabolic Activation: RAT, LIVER, S-9, PCB (10%), Method: PREINCUBATION) of the same compound?
**A.** active; positive

**Q.** And the mutagenic call (Test System: AMES SALMONELLA TYPHIMURIUM, Strain/Indicator: TA98(NR), Metabolic Activation: RAT, LIVER, S-9, PHENOBARBITAL (10%), Method: PREINCUBATION)?
**A.** active; positive

**Q.** And the mutagenic call [1]?
**A.** active; positive

**Q.** And the mutagenic call (Test System: AMES SALMONELLA TYPHIMURIUM, Strain/Indicator: TA98, Metabolic Activation: NONE, Method: SUSPENSION)?
**A.** active; positive

**Q.** What about the mutagenic call (Test System: AMES SALMONELLA TYPHIMURIUM, Strain/Indicator: TA98, Metabolic Activation: RAT, LIVER, S-9, PCB (5%), Method: PREINCUBATION) of the same compound?
**A.** active; positive

**Q.** And the mutagenic call (Test System: AMES SALMONELLA TYPHIMURIUM, Strain/Indicator: TA98, Metabolic Activation: RAT, LIVER, S-9, PCB, Method: SUSPENSION)?
**A.** active; positive

**Q.** What about the mutagenic call [2] of the same compound?
**A.** inactive; negative

**Q.** What about the mutagenic call (Test System: AMES SALMONELLA TYPHIMURIUM, Strain/Indicator: TA100, Metabolic Activation: NONE, Method: SUSPENSION) of the same compound?
**A.** active; positive

**Q.** And the mutagenic call (Test System: AMES SALMONELLA TYPHIMURIUM, Strain/Indicator: TA100, Metabolic Activation: RAT, LIVER, S-9, PCB (5%), Method: PREINCUBATION)?
**A.** active; positive

**Q.** What about the mutagenic call (Test System: AMES SALMONELLA TYPHIMURIUM, Strain/Indicator: TA100, Metabolic Activation: RAT, LIVER, S-9, PCB, Method: SUSPENSION) of the same compound?
**A.** active; positive

**Q.** Which mutagenic call (End Point: IN VIVO MICRONUCLEUS, Test System: BONE MARROW POLYCHROMATIC ERYTHROCYTES, Species: MOUSE, Strain/Sex: KM/MALE, FEMALE, Route: IP INJECTION) does the source give for `CN(N=O)C(=O)Oc1cccc2c1OC(C)(C)C2` here?
**A.** active; positive

**Q.** For `CCOC(=O)CCl`, which mutagenic call (Test System: AMES SALMONELLA TYPHIMURIUM, Strain/Indicator: TA102, Metabolic Activation: NONE, Method: STANDARD PLATE) is on record?
**A.** inactive; negative

**Q.** What about the mutagenic call (Test System: AMES SALMONELLA TYPHIMURIUM, Strain/Indicator: TA2638, Metabolic Activation: NONE, Method: STANDARD PLATE) of the same compound?
**A.** inactive; negative

**Q.** And the mutagenic call (Test System: E. COLI, Strain/Indicator: WP2 (PKM101), Metabolic Activation: NONE, Method: STANDARD PLATE)?
**A.** inactive; negative

**Q.** And the mutagenic call (Test System: E. COLI, Strain/Indicator: WP2 UVRA (PKM101), Metabolic Activation: NONE, Method: STANDARD PLATE)?
**A.** inactive; negative

**Q.** With `[As]` as the compound, how does the mutagenic call (End Point: IN VIVO CHROMOSOMAL ABERRATIONS, Test System: BLOOD LYMPHOCYTES, Species: HUMAN, Strain/Sex: MALE, FEMALE, Route: ORAL, DRINKING WATER) read?
**A.** active; positive (structural changes) ; all subjects showed arsenic-related skin lesions

**Q.** What about the mutagenic call (End Point: IN VIVO CHROMOSOMAL ABERRATIONS, Test System: PERIPHERAL BLOOD LYMPHOCYTES, Species: HUMAN, Strain/Sex: MALE, FEMALE, Route: DRINKING WATER) of the same compound?
**A.** active; positive; exact form of arsenic not given: significant increase in exposed indiv

**Q.** And the mutagenic call (End Point: IN VIVO MICRONUCLEUS, Test System: PERIPHERAL BLOOD LYMPHOCYTES, Species: HUMAN, Strain/Sex: MALE, FEMALE, Route: ORAL, DRINKING WATER)?
**A.** active; positive; environmental exposure from drinking water

**Q.** And the mutagenic call (End Point: In vivo micronucleus, Test System: Peripheral lymphocytes, Species: Human, Strain/Sex: Male, Route: Inhalation (Occupational))?
**A.** inactive; negative

**Q.** Which mutagenic call (Test System: Ames Salmonella typhimurium, Strain/Indicator: TA98, Metabolic Activation: None, Method: Standard plate) does the source give for `C[C@]12CC[C@@H]3c4ccc(O)c(O)c4CC[C@H]3[C@@H]1CCC2=O` here?
**A.** inactive; negative

**Q.** And the mutagenic call (Test System: Ames Salmonella typhimurium, Strain/Indicator: TA98, Metabolic Activation: Rat, liver, S-9, Method: Standard plate)?
**A.** inactive; negative

**Q.** And the mutagenic call (Test System: Ames Salmonella typhimurium, Strain/Indicator: TA100, Metabolic Activation: None, Method: Standard plate)?
**A.** inactive; negative

**Q.** And the mutagenic call (Test System: Ames Salmonella typhimurium, Strain/Indicator: TA100, Metabolic Activation: Rat, liver, S-9, Method: Standard plate)?
**A.** inactive; negative
